Literature values in US6670343B1, “Drugs for periodontal disease” (Toray Industries, Inc., priority 1999, dated 2003).

Conditions: reported in J. Periodontology 63, 825-830 (1992)

For NCCCC(O)(P(=O)(O)O)P(=O)(O)O [4-amino-1-hydroxybutylidene-1,1-bisphosphonic acid], the “effect on alveolar bone resorption” value is given as “effectively suppresses alveolar bone resorption” and the “effect on dental pocket formation and gingival inflammation” value is given as “not effective”.
